Measured values: US9259487B2, “Transgenic non-human animal model of neurodegenerative disease” (Nagasaki University, priority 2011, dated 2016)

Assays:
Assay type in all cases: in vivo, mouse
GgFF mice [1] = assay: Rotarod dwelling time (30 rpm, 40 rpm) of aged mice deficient in prothymosin α in striatum
GgFF mice [2] = assay: Clasping reflex score of aged mice deficient in prothymosin α in striatum
GgFF mice [3] = assay: Survival ratio after 15-min transient middle cerebral artery occlusion (tMCAO); settings: 8- to 16-week-old GgFF mice, administration group
GgFF mice [4] = assay: Clinical score (motility dysfunction) after 15-min tMCAO; settings: 8- to 16-week-old GgFF mice, selegiline 10 mg/kg intraperitoneally after 15-min tMCAO
GgFF mice [5] = assay: Rotarod dwelling time (motility function) after 15-min tMCAO; settings: 8- to 16-week-old GgFF mice, selegiline 10 mg/kg intraperitoneally after 15-min tMCAO, 6 rpm and 12 rpm

## CC12CC3CC(C)(C1)CC(N)(C3)C2 [memantine]
GgFF mice [1]; aged GgFF mice, memantine 10 mg/kg intraperitoneally every day from Day 1 to Day 7, 30 rpm and 40 rpm
  symptom (motility function by Rotarod), chronic administration: remarkable recovery
GgFF mice [1]; aged GgFF mice, memantine 10 mg/kg intraperitoneally, 24 hr after the administration
  motility function, acute (within 24 hr): most recovered
GgFF mice [2]; memantine 10 mg/kg intraperitoneally every day from Day 1 to Day 7
  symptom (clasping scores), chronic administration: remarkable recovery

## Cl.Oc1cc2c(cc1O)C(c1ccccc1)CNCC2 (racemic) [SKF38393, (±)-1-phenyl-2,3,4,5-tetrahydro-1H-3-benzazepine-7,8-diol HCl]
GgFF mice [1]; 20- to 30-week-old GgFF mice, 5 hr after intraperitoneal administration of 30 mg/kg, 30 rpm, vs vehicle
  motility dysfunction in the Rotarod test: significantly improved

## CCCN[C@H]1CCc2nc(N)sc2C1 [pramipexole]
GgFF mice [3]; pramipexole 0.01 mg/kg intraperitoneally after 15-min tMCAO
  survival ratio: 75%

## C#CCN(C)[C@H](C)Cc1ccccc1 [selegiline]
GgFF mice [3]; selegiline 10 mg/kg intraperitoneally after 15-min tMCAO
  survival ratio: markedly-improved
GgFF mice [4]
  motility dysfunction (Clinical score): remarkably improved
GgFF mice [5]
  motility function (dwelling time on Rotarod, Latency to fall) vs non-administration group: improved motility function
GgFF mice [1]; aged GgFF mice, selegiline 10 mg/kg intraperitoneally, 30 rpm and 40 rpm
  dwelling time on the Rotarod vs before administration, acute (within 24 hr): tended to be long
GgFF mice [2]; selegiline 10 mg/kg intraperitoneally
  clasping scores vs before administration, acute (within 24 hr): tended to improve
